According to patent publication US8247211B2, “Glycopeptide antibiotics” (American Cyanamid Company, priority 2001, dated 2012):
In brackets after ≈: the same amount, converted by molar mass.

Key:
Test in all cases: In vitro antibacterial evaluation: minimum inhibitory concentration (MIC), broth dilution method
Format in all cases: cell-based
Details in all cases: broth dilution, 18 hours at 35° C.
Enterococcus sp. = tested on: Enterococcus sp.
Procedure, shortened: (§1)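 NCCLS M7-A2 broth dilution with Mueller-Hinton II, testing 64-0.06 μg/mL antibiotic against 5×10^5 CFU/mL inocula. Test strains include recent methicillin-, penicillin- or vancomycin-resistant clinical isolates. MIC is the lowest concentration preventing growth.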

Staphylococcus sp. = tested on: Staphylococcus sp.
Procedure, shortened: as §1

Streptococcus sp. = tested on: Streptococcus sp.
Procedure, shortened: as §1

Escherichia coli = tested on: Escherichia coli

MIC Enterococcus avium (GC 4558) (Enterococcus sp.; Enterococcus avium (GC 4558)): 16 µg/mL (≈ 13.8 µM) | MIC Enterococcus faecalis (ATCC 29212) (Enterococcus sp.; Enterococcus faecalis (ATCC 29212)): 64 µg/mL (≈ 55.1 µM) | MIC Enterococcus faecalis (GC 2242) (Enterococcus sp.; Enterococcus faecalis (GC 2242)): 32 µg/mL (≈ 27.5 µM) | MIC Enterococcus faecalis (GC 2691) (Enterococcus sp.; Enterococcus faecalis (GC 2691)): 32 µg/mL (≈ 27.5 µM) | MIC Enterococcus faecalis (GC 3059) (Enterococcus sp.; Enterococcus faecalis (GC 3059)): 32 µg/mL (≈ 27.5 µM) | MIC Enterococcus faecalis (GC 4552) (Enterococcus sp.; Enterococcus faecalis (GC 4552)): 32 µg/mL (≈ 27.5 µM) | MIC Enterococcus faecalis (GC 4553) (Enterococcus sp.; Enterococcus faecalis (GC 4553)): 32 µg/mL (≈ 27.5 µM) | MIC Enterococcus faecalis (GC 4554) (Enterococcus sp.; Enterococcus faecalis (GC 4554)): 32 µg/mL (≈ 27.5 µM) | MIC Enterococcus faecalis (GC 6189) (Enterococcus sp.; Enterococcus faecalis (GC 6189)): 64 µg/mL (≈ 55.1 µM) | MIC Enterococcus faecium (GC 2243) (Enterococcus sp.; Enterococcus faecium (GC 2243)): 32 µg/mL (≈ 27.5 µM) | MIC Enterococcus faecium (GC 4556) (Enterococcus sp.; Enterococcus faecium (GC 4556)): 64 µg/mL (≈ 55.1 µM) | MIC Enterococcus faecium (GC 4557) (Enterococcus sp.; Enterococcus faecium (GC 4557)): 8 µg/mL (≈ 6.88 µM) | MIC Enterococcus avium (GC 4558) (Enterococcus sp.): 16 µg/mL (≈ 13.8 µM) | MIC Enterococcus faecalis (ATCC 29212) (Enterococcus sp.): 64 µg/mL (≈ 55.1 µM) | MIC Enterococcus faecalis (GC 2242) (Enterococcus sp.): 32 µg/mL (≈ 27.5 µM) | MIC Enterococcus faecalis (GC 2691) (Enterococcus sp.): 32 µg/mL (≈ 27.5 µM) | MIC Enterococcus faecalis (GC 3059) (Enterococcus sp.): 32 µg/mL (≈ 27.5 µM) | MIC Enterococcus faecalis (GC 4552) (Enterococcus sp.): 32 µg/mL (≈ 27.5 µM) | MIC Enterococcus faecalis (GC 4553) (Enterococcus sp.): 32 µg/mL (≈ 27.5 µM) | MIC Enterococcus faecalis (GC 4554) (Enterococcus sp.): 32 µg/mL (≈ 27.5 µM) | MIC Enterococcus faecalis (GC 6189) (Enterococcus sp.): 64 µg/mL (≈ 55.1 µM) | MIC Enterococcus faecium (GC 2243) (Enterococcus sp.): 32 µg/mL (≈ 27.5 µM) | MIC Enterococcus faecium (GC 4556) (Enterococcus sp.): 64 µg/mL (≈ 55.1 µM) | MIC Enterococcus faecium (GC 4557) (Enterococcus sp.): 8 µg/mL (≈ 6.88 µM) | MIC Coagulase Negative Staphylococcus (GC 4547) (Staphylococcus sp.): 16 µg/mL (≈ 13.8 µM) | MIC Coagulase Negative Staphylococcus (GC 4548) (Staphylococcus sp.): 16 µg/mL (≈ 13.8 µM) | MIC Coagulase Negative Staphylococcus (GC 4549) (Staphylococcus sp.): 4 µg/mL (≈ 3.44 µM) | MIC Coagulase Negative Staphylococcus (GC 4551) (Staphylococcus sp.): 32 µg/mL (≈ 27.5 µM) | MIC Coagulase Negative Staphylococcus (GC 6257) (Staphylococcus sp.): 8 µg/mL (≈ 6.88 µM) | MIC Staphylococcus aureus SMITH (GC 4543) (Staphylococcus sp.): 16 µg/mL (≈ 13.8 µM) | MIC Staphylococcus aureus-SMITH (GC 4543) (Staphylococcus sp.; strain SMITH GC 4543): 16 µg/mL (≈ 13.8 µM) | MIC Streptococcus agalactiae (GC 4564) (Streptococcus sp.; Streptococcus agalactiae (GC 4564)): 32 µg/mL (≈ 27.5 µM) | MIC Streptococcus pneumoniae (ATCC 6301) (Streptococcus sp.; Streptococcus pneumoniae (ATCC 6301)): 32 µg/mL (≈ 27.5 µM) | MIC Streptococcus pneumoniae (GC 1894) (Streptococcus sp.; Streptococcus pneumoniae (GC 1894)): 16 µg/mL (≈ 13.8 µM) | MIC Streptococcus pneumoniae (GC 4565) (Streptococcus sp.; Streptococcus pneumoniae (GC 4565)): 32 µg/mL (≈ 27.5 µM) | MIC Streptococcus pyogenes (GC 4563) (Streptococcus sp.; Streptococcus pyogenes (GC 4563)): 8 µg/mL (≈ 6.88 µM) | MIC Streptococcus agalactiae (GC 4564) (Streptococcus sp.): 32 µg/mL (≈ 27.5 µM) | MIC Streptococcus pneumoniae (ATCC 6301) (Streptococcus sp.): 32 µg/mL (≈ 27.5 µM) | MIC Streptococcus pneumoniae (GC 1894) (Streptococcus sp.): 16 µg/mL (≈ 13.8 µM) | MIC Streptococcus pneumoniae (GC 4565) (Streptococcus sp.): 32 µg/mL (≈ 27.5 µM) | MIC Streptococcus pyogenes (GC 4563) (Streptococcus sp.): 8 µg/mL (≈ 6.88 µM) | MIC Escherichia coli (ATCC 25922) (Escherichia coli): 64 µg/mL (≈ 55.1 µM) | MIC Escherichia coli (GC 4559) (Escherichia coli): 64 µg/mL (≈ 55.1 µM) | MIC Escherichia coli (GC 4560) (Escherichia coli): 16 µg/mL (≈ 13.8 µM)
SMILES: COc1cc(-c2nc3cc(CC4NC(=O)C(C(C)c5ccccc5)NC(=O)CNC(=O)C(CO)NC(=O)C(C(O)C5CNC(=N)N5C5OC(CO)C(O)C(O)C5O)NC(=O)C(C(O)C5CNC(=N)N5)NC4=O)ccc3o2)cc(OC)c1OC (stereo not drawn) [Example 34, Cyclo[3-[2-(3,4,5-trimethoxyphenyl)-1,3-benzoxazol-5-yl]alanyl-3-(2-iminoimidazolidin-4-yl)seryl-3-(3-hexopyranosyl-2-iminoimidazolidin-4-yl)serylserylglycyl-β-methylphenyl-alanyl]]
MIC Staphylococcus haemolyticus (GC 4546) (Staphylococcus sp.): 8 µg/mL (≈ 6.88 µM)
